For 12 compounds, T/C results are on record in PubChem BioAssay AID250 (DTP/NCI, 2004).

The subject of this test is BDF1 mice, L1210 leukemia sc, survival T/C. In words: NCI In Vivo Anticancer Drug Screen. Data for tumor model L1210 Leukemia (subcutaneous) in B6D2F1 (BDF1) mice. Particulars: higher = longer survival. The gist of the method: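 Read-out: T/C ratio, i.e. survival or tumor size in treated mice over that in vehicle-treated controls, from mice bearing transplantable tumors.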

Setting [1] is: endpoint: median survival time, dose: 23.0 mg/kg/injection, schedule: Q01DX Z (sc), vehicle: methylcellulose (MC).
[2] abbreviates: endpoint: median survival time, dose: 65.0 mg/kg/injection, schedule: Q01DX Z (sc), vehicle: methylcellulose (MC).
Setting [3] is: endpoint: median survival time, dose: 14.0 mg/kg/injection, schedule: Q01DX Z (sc), vehicle: water.
Where [4] appears, read: endpoint: median survival time, dose: 5.0 mg/kg/injection, schedule: Q01DX Z (sc), vehicle: methylcellulose (MC).
[5] abbreviates: endpoint: median survival time, dose: 8.4 mg/kg/injection, schedule: Q01DX Z (sc), vehicle: methylcellulose (MC).
The mark [6] stands for this setting: endpoint: median survival time, dose: 14.0 mg/kg/injection, schedule: Q01DX Z (sc), vehicle: methylcellulose (MC).
Where [7] appears, read: endpoint: median survival time, dose: 39.0 mg/kg/injection, schedule: Q01DX Z (sc), vehicle: methylcellulose (MC).
Setting [8] is: endpoint: median survival time, dose: 108.0 mg/kg/injection, schedule: Q01DX Z (sc), vehicle: methylcellulose (MC).

SMILES strings stand for the structures. Values joined by “and” are separate entries in the source; they are usually repeats but may differ in a detail not shown here. Equal entries are not always repeated. Toxic doses and inconclusive results are not listed.

Take `CCOC1=C(N2CC2)C(=O)C(OCC)=C(N2CC2)C1=O`: the T/C is 109 % of control (endpoint: median survival time, dose: 3.0 mg/kg/injection, schedule: Q01DX Z (sc), vehicle: carboxymethylcellulose (CMC)); 122 % of control (endpoint: median survival time, dose: 14.0 mg/kg/injection, schedule: Q01DX Z (sc), vehicle: carboxymethylcellulose (CMC)); 109 % of control (endpoint: median survival time, dose: 23.0 mg/kg/injection, schedule: Q01DX Z (sc), vehicle: carboxymethylcellulose (CMC)).
As to `CC(=O)Nc1ccc2nc3ccc(NC(C)=O)cc3[n+](-c3ccccc3)c2c1`, the T/C is 105 % of control under setting [1] and 105 % of control under setting [2].
With `Nc1nc2c(c(=O)[nH]1)N=C(CNc1ccc(C(=O)NC(CCC(=O)O)C(=O)O)cc1)CN2` (centres undefined), the T/C reads like this: (endpoint: mean survival time, dose: 1.0 mg/kg/injection, schedule: Q01DX009 (ip), vehicle: sodium bicarbonate) 95 % of control; (endpoint: mean survival time, dose: 2.0 mg/kg/injection, schedule: Q01DX009 (ip), vehicle: sodium bicarbonate) 94 % of control; (endpoint: mean survival time, dose: 4.0 mg/kg/injection, schedule: Q01DX009 (ip), vehicle: sodium bicarbonate) 98 % of control; (endpoint: mean survival time, dose: 4.0 mg/kg/injection, schedule: Q04DX003 (ip), vehicle: sodium bicarbonate) 98 % of control; (endpoint: mean survival time, dose: 8.0 mg/kg/injection, schedule: Q01DX009 (ip), vehicle: sodium bicarbonate) 94 % of control; (endpoint: mean survival time, dose: 8.0 mg/kg/injection, schedule: Q04DX003 (ip), vehicle: sodium bicarbonate) 100 % of control. Also, the T/C was 102 % of control (endpoint: mean survival time, dose: 16.0 mg/kg/injection, schedule: Q01DX009 (ip), vehicle: sodium bicarbonate); 96 % of control (endpoint: mean survival time, dose: 16.0 mg/kg/injection, schedule: Q04DX003 (ip), vehicle: sodium bicarbonate); 98 % of control (endpoint: mean survival time, dose: 32.0 mg/kg/injection, schedule: Q04DX003 (ip), vehicle: sodium bicarbonate); 96 % of control (endpoint: mean survival time, dose: 64.0 mg/kg/injection, schedule: Q04DX003 (ip), vehicle: sodium bicarbonate).
Turning to `COc1cc(NS(C)(=O)=O)ccc1Nc1c2cccc(C)c2nc2c(C)cccc12`, the T/C is, setting by setting: (endpoint: mean survival time, dose: 6.25 mg/kg/injection, schedule: Q01DX009 (ip), vehicle: Klucel (hydroxypropylcellulose) (HPC)) 100 % of control; (endpoint: mean survival time, dose: 12.5 mg/kg/injection, schedule: Q01DX009 (ip), vehicle: Klucel (hydroxypropylcellulose) (HPC)) 103 % of control; (endpoint: mean survival time, dose: 25.0 mg/kg/injection, schedule: Q01DX009 (ip), vehicle: Klucel (hydroxypropylcellulose) (HPC)) 102 % of control; (endpoint: mean survival time, dose: 50.0 mg/kg/injection, schedule: Q01DX009 (ip), vehicle: Klucel (hydroxypropylcellulose) (HPC)) 103 % of control.
Regarding `O=C(NP(=O)(N1CC1)N1CC1)OCc1ccccc1`, the T/C reads like this: (endpoint: median survival time, dose: 3.0 mg/kg/injection, schedule: Q01DX Z (sc), vehicle: water) 111 % of control; under setting [3], 111 % of control; (endpoint: median survival time, dose: 23.0 mg/kg/injection, schedule: Q01DX Z (sc), vehicle: water) 111 % of control.
In the case of `C[n+]1ccc(Nc2ccc(NC(=O)c3ccc(Nc4cc[n+](C)c5ccc(N)cc45)cc3)cc2)cc1`, the T/C by setting is: (endpoint: median survival time, dose: 0.5 mg/kg/injection, schedule: Q01DX009 (ip), vehicle: Klucel (hydroxypropylcellulose) (HPC)) 100 % of control; (endpoint: median survival time, dose: 1.0 mg/kg/injection, schedule: Q01DX009 (ip), vehicle: Klucel (hydroxypropylcellulose) (HPC)) 110 % of control; (endpoint: median survival time, dose: 2.0 mg/kg/injection, schedule: Q01DX009 (ip), vehicle: Klucel (hydroxypropylcellulose) (HPC)) 182 % of control; (endpoint: median survival time, dose: 4.0 mg/kg/injection, schedule: Q01DX009 (ip), vehicle: Klucel (hydroxypropylcellulose) (HPC)) 250 % of control; (endpoint: median survival time, dose: 8.0 mg/kg/injection, schedule: Q01DX009 (ip), vehicle: Klucel (hydroxypropylcellulose) (HPC)) 291 % of control.
For the compound `ClCCn1c2ccccc2c2ccccc21`, the T/C reads like this: under setting [4], 100 % of control; under setting [5], 100 % of control; under setting [6], 100 % of control; under setting [1], 100 % of control; under setting [7], 100 % of control; under setting [2], 100 % of control. Also, under setting [8], the T/C was 100 % of control.
Take `CCOC(=O)NP(=O)(N1CC1)N1CC1`: the T/C is 120 % of control (endpoint: median survival time, dose: 5.0 mg/kg/injection, schedule: Q01DX Z (sc), vehicle: water); 150 % of control under setting [3]; 170 % of control (endpoint: median survival time, dose: 23.0 mg/kg/injection, schedule: Q02DX Z (sc), vehicle: water); 165 % of control (endpoint: median survival time, dose: 23.0 mg/kg/injection, schedule: Q## X Z (sc), vehicle: water); 160 % of control (endpoint: median survival time, dose: 39.0 mg/kg/injection, schedule: Q01DX001 (sc), vehicle: water); 150 % of control (endpoint: median survival time, dose: 39.0 mg/kg/injection, schedule: Q07DX Z (sc), vehicle: water).
Take `CC(=O)NC1=C(N2CC2)C(=O)C(NC(C)=O)=C(N2CC2)C1=O`: the T/C was 213 % of control (endpoint: median survival time, dose: 1.08 mg/kg/injection, schedule: Q01DX Z (sc), vehicle: saline); 163 % of control (endpoint: median survival time, dose: 1.8 mg/kg/injection, schedule: Q01DX Z (sc), vehicle: saline); 118 % of control (endpoint: median survival time, dose: 5.0 mg/kg/injection, schedule: Q01DX Z (sc), vehicle: saline); 109 % of control (endpoint: median survival time, dose: 8.4 mg/kg/injection, schedule: Q01DX Z (sc), vehicle: saline).
Take `CC(=O)NC(CS)C(=O)O` (centres undefined): the T/C runs as follows: (endpoint: median survival time, dose: 600.0 mg/kg/injection, schedule: Q01DX001 (ip), vehicle: saline) 94 % of control and 97 % of control; (endpoint: median survival time, dose: 600.0 mg/kg/injection, schedule: Q01DX015 (ip), vehicle: saline) 94 % of control and 97 % of control; (endpoint: median survival time, dose: 600.0 mg/kg/injection, schedule: Q07DX003 (ip), vehicle: saline) 94 % of control and 97 % of control; (endpoint: median survival time, dose: 1000.0 mg/kg/injection, schedule: Q01DX001 (ip), vehicle: saline) 94 % of control and 96 % of control; (endpoint: median survival time, dose: 1000.0 mg/kg/injection, schedule: Q01DX015 (ip), vehicle: saline) 103 % of control and 105 % of control; (endpoint: median survival time, dose: 1000.0 mg/kg/injection, schedule: Q07DX003 (ip), vehicle: saline) 99 % of control and 100 % of control.
On to `C1OC1CN1CCC(C2CCN(CC3CO3)CC2)CC1` (centres undefined), for which the T/C reads like this: under setting [4], 109 % of control; under setting [6], 109 % of control; under setting [1], 104 % of control; (endpoint: median survival time, dose: 65.0 mg/kg/injection, schedule: Q03DX Z (sc), vehicle: methylcellulose (MC)) 109 % of control; under setting [8], 118 % of control; (endpoint: median survival time, dose: 180.0 mg/kg/injection, schedule: Q03DX Z (sc), vehicle: methylcellulose (MC)) 118 % of control.
As for `Cn1c(O)c(N=NC(N)=S)c2ccccc21`, the T/C was 100 % of control under setting [4]; 100 % of control under setting [5]; 100 % of control under setting [6]; 100 % of control under setting [1]; 100 % of control under setting [7]; 100 % of control under setting [2]. Moreover, the T/C reads like this: under setting [8], 100 % of control; (endpoint: median survival time, dose: 180.0 mg/kg/injection, schedule: Q01DX Z (sc), vehicle: methylcellulose (MC)) 100 % of control.
